Results reported in publication PMC12677607, “Identification of a Pair of Linear or Cyclic Naturally Inspired Bifunctional Lipopeptide Antibiotics That Overcome Antimicrobial Resistance” (Advanced Science, 2025).
Values after ≈ are worked out from the molar mass of the structure shown. Bridge positions count the residues as written; N and C are the ends. Square brackets hold non-standard residues; d marks the D form. Peptide text beside a SMILES is read from it. * marks the point of attachment. Octanoyl(3R-OH) = CCCCC[C@@H](O)CC(=O)*; Myristoyl = CCCCCCCCCCCCCC(=O)*; Orn = NCCC[C@H](N)C(=O)O; Dab = NCC[C@H](N)C(=O)O; Dap = NC[C@H](N)C(=O)O

How the values were obtained:
Shigella Castellani LXX = test: MIC assay (broth micro-dilution); assay type: cell-based; details: Shigella; Table S11; LB broth, 37 °C, 16 h, n = 2
Procedure: (§1) All MIC assays were performed two independent times (n = 2) in 96‐well plates using a broth micro‐dilution method. The lowest concentration of that inhibited visible microbial growth was recorded as the MIC value.
(§2) For most of bacterial strains, overnight cultures were diluted 5000‐fold in LB broth. For E. faecium and S. aureus, overnight cultures were diluted 1000‐ and 10000‐fold in LB broth, respectively. 100 µL of diluted cells was mixed with 100 µL of LB broth containing each peptide ranging from 64 to 0.125 µg mL^−1 at 2‐fold serial dilutions.

[1] = test system: Acinetobacter baumannii 1104008; test: microbe, parasite or virus in culture; assay type: cell-based; details: for MIC (μg/mL) A. baumannii 1104008: 1104008, 16 h
Procedure: as §1, §2

[2] = test system: Acinetobacter baumannii ATCC 17978; test: microbe, parasite or virus in culture; assay type: cell-based; details: Acinetobacter baumannii, ATCC17978; Table S11; LB broth, 37 °C, 16 h, n = 2
Procedure: as §1, §2

[3] = test system: Acinetobacter baumannii ATCC 19606; test: microbe, parasite or virus in culture; assay type: cell-based; details: Acinetobacter baumannii, ATCC19606; Table S11; LB broth, 37 °C, 16 h, n = 2
Procedure: as §1, §2

[4] = test system: Acinetobacter baumannii P53; test: microbe, parasite or virus in culture; assay type: cell-based; details: Acinetobacter baumannii, P53; Table S11; LB broth, 37 °C, 16 h, n = 2
Procedure: as §1, §2

[5] = test system: Klebsiella pneumoniae ATCC 13883; test: microbe, parasite or virus in culture; assay type: cell-based; details: Klebsiella pneumoniae, ATCC13883, 16 h, read-out: MIC Klebsiella pneumoniae ATCC 13883
Procedure: as §1, §2

[6] = test system: Klebsiella pneumoniae CRKP 5452; test: microbe, parasite or virus in culture; assay type: cell-based; details: for MIC (μg/mL) K. pneumoniae CRKP 5452: CRKP 5452, 16 h
Procedure: as §1, §2

[7] = test system: Klebsiella pneumoniae CRKP HS11286; test: microbe, parasite or virus in culture; assay type: cell-based; details: Klebsiella pneumoniae, CRKPHS11286, 16 h, read-out: MIC Klebsiella pneumoniae CRKP HS11286
Procedure: as §1, §2

[8] = test system: Klebsiella pneumoniae NCTC 5056; test: microbe, parasite or virus in culture; assay type: cell-based; details: Klebsiella pneumoniae, NCTC5056, 16 h, read-out: MIC Klebsiella pneumoniae NCTC 5056
Procedure: as §1, §2

[9] = test system: Pseudomonas aeruginosa ATCC 9027; test: microbe, parasite or virus in culture; assay type: cell-based; details: Pseudomonas aeruginosa, ATCC9027; Table S11; LB broth, 37 °C, 16 h, n = 2
Procedure: as §1, §2

[10] = test system: Pseudomonas aeruginosa PAO1; test: microbe, parasite or virus in culture; assay type: cell-based; details: Pseudomonas aeruginosa, PAO1; Table S11; LB broth, 37 °C, 16 h, n = 2
Procedure: as §1, §2

[11] = test system: Salmonella enterica ATCC 14028; test: microbe, parasite or virus in culture; assay type: cell-based; details: Salmonella enterica, ATCC14028, 16 h, read-out: MIC Salmonella enterica ATCC 14028
Procedure: as §1, §2

[12] = test system: Salmonella typhimurium LXX; test: microbe, parasite or virus in culture; assay type: cell-based; details: Salmonella enterica, TYPHIMURIUM, 16 h, read-out: MIC Salmonella typhimurium LXX
Procedure: as §1, §2

[13] = test system: Vibrio alginolyticus XSBZ14; test: microbe, parasite or virus in culture; assay type: cell-based; details: Vibrio alginolyticus, XSBZ14, 16 h, read-out: MIC Vibrio alginolyticus XSBZ14
Procedure: as §1, §2

[14] = test system: Staphylococcus aureus USA300; test: microbe, parasite or virus in culture; assay type: cell-based; details: USA300, 16 h
Procedure: as §1, §2

[15] = test system: Streptococcus pyogenes ATCC 19615; test: microbe, parasite or virus in culture; assay type: cell-based; details: ATCC 19615, 16 h
Procedure: as §1, §2

[16] = test system: Candida albicans ATCC 10231; test: MIC assay (YPD broth); assay type: cell-based; details: ATCC 10231, 16 h
Procedure: as §1
For fungal strains, overnight cultures were diluted 2000‐fold in YPD broth. 100 µL of diluted cells was mixed with 100 µL of YPD broth containing each peptide ranging from […] 64 to 0.125 µg mL^−1 at 2‐fold serial dilutions.

HeLa cells = test: Cytotoxicity assay (CCK-8); assay type: cell-based, human; details: 48 h
Procedure: The cytotoxicity of each synAQU peptide was assessed using a cell counting kit‐8 (CCK‐8) assay. HeLa cells were first seeded in a 96‐well flat‐bottom microtiter plate with a density of ∼5000 cells per well and incubated in the DMEM medium supplemented with 10% FBS at 37 °C with 5% CO2 for 24 h. […] All cytotoxicity experiments were done in triplicate (n = 3) and repeated two independent times (n = 2).

Structure (SMILES)	MIC (Shigella Castellani LXX)	MIC ([1]; Acinetobacter baumannii, 1104008, Table S11, LB broth, 37 °C, 16 h, n = 2)	MIC [2]	MIC [3]	MIC [4]	MIC [5]	MIC ([6]; Klebsiella pneumoniae, CRKP5452, Table S11, LB broth, 37 °C, 16 h, n = 2)	MIC [7]	MIC [8]	MIC [9]	MIC [10]	MIC [11]	MIC [12]	MIC [13]	MIC (μg/mL) A. baumannii 1104008 [1]	MIC (μg/mL) K. pneumoniae CRKP 5452 [6]	MIC (μg/mL) S. aureus USA300 [14]	MIC (μg/mL) S. pyogenes ATCC 19615 [15]	MIC (μg/mL) C. albicans ATCC 10231 [16]	MIC (μg/mL) Hela (HeLa cells)
C[C@@H](O)[C@H]1C(=O)N2C(C(=O)O)=C(S[C@@H]3CN[C@H](C(=O)N(C)C)C3)[C@H](C)[C@H]12 [Meropenem, reference compound]	0.125 µg/mL (≈ 0.326 µM)	16 µg/mL (≈ 41.7 µM)	0.25 µg/mL (≈ 0.652 µM)	0.5 µg/mL (≈ 1.3 µM)	32 µg/mL (≈ 83.4 µM)	< 0.125 µg/mL	16 µg/mL (≈ 41.7 µM)	8 µg/mL (≈ 20.9 µM)	0.125 µg/mL (≈ 0.326 µM)	0.25 µg/mL (≈ 0.652 µM)	16 µg/mL (≈ 41.7 µM)	0.125 µg/mL (≈ 0.326 µM)	0.125 µg/mL (≈ 0.326 µM)	< 0.125 µg/mL	–	–	–	–	–	–
CCCCCCCCCCCCCC(=O)N[C@@H](Cc1ccccc1)C(=O)N[C@H]1CCCNC(=O)CNC(=O)[C@H](CCN)NC(=O)[C@@H](Cc2ccc(O)cc2)NC(=O)[C@H](CC(C)C)NC(=O)[C@H]([C@@H](C)CC)NC(=O)[C@@H](C(C)C)NC(=O)[C@H](CCCN)NC1=O [synAQU2-C2] (Myristoyl-F[Orn][Orn][dV]IL[dY][Dab]G; lactam 2-C (inferred))	–	–	–	–	–	–	–	–	–	–	–	–	–	–	> 64 µg/mL	> 64 µg/mL	> 64 µg/mL	> 64 µg/mL	> 64 µg/mL	> 64 µg/mL
CCCCCCCCCCCCCC(=O)N[C@@H](Cc1ccccc1)C(=O)N[C@@H](CCCN)C(=O)N[C@@H](CCCN)C(=O)N[C@@H](C(=O)N[C@H](C(=O)N[C@@H](CC(C)C)C(=O)N[C@H](Cc1ccc(O)cc1)C(=O)N[C@@H](CCN)C(=O)NCC(=O)O)[C@@H](C)CC)C(C)C [synAQU2-L] (Myristoyl-F[Orn][Orn][dV]IL[dY][Dab]G-OH)	–	–	–	–	–	–	–	–	–	–	–	–	–	–	> 64 µg/mL	> 64 µg/mL	> 64 µg/mL	> 64 µg/mL	> 64 µg/mL	> 64 µg/mL
CCCCC[C@@H](O)CC(=O)N[C@H]1CNC(=O)[C@H](CC(=O)O)NC(=O)[C@H](C(C)C)NC(=O)[C@@H](CC(C)C)NC(=O)[C@H](CN)NC(=O)[C@@H](Cc2ccccc2)NC(=O)[C@H]([C@@H](C)O)NC(=O)[C@H](CCN)NC(=O)[C@H](Cc2ccccc2)NC1=O [synAQU3-C1] ({Octanoyl(3R-OH)}-[Dap]F[Dab]T[dF][Dap][dL]VD; lactam 1-C (inferred))	–	–	–	–	–	–	–	–	–	–	–	–	–	–	> 64 µg/mL	> 64 µg/mL	> 64 µg/mL	> 64 µg/mL	> 64 µg/mL	> 64 µg/mL
CCCCC[C@@H](O)CC(=O)N[C@@H](CN)C(=O)N[C@@H](Cc1ccccc1)C(=O)N[C@H]1CCNC(=O)[C@H](CC(=O)O)NC(=O)[C@H](C(C)C)NC(=O)[C@@H](CC(C)C)NC(=O)[C@H](CN)NC(=O)[C@@H](Cc2ccccc2)NC(=O)[C@H]([C@@H](C)O)NC1=O [synAQU3-C3] ({Octanoyl(3R-OH)}-[Dap]F[Dab]T[dF][Dap][dL]VD; lactam 3-C (inferred))	–	–	–	–	–	–	–	–	–	–	–	–	–	–	> 64 µg/mL	> 64 µg/mL	> 64 µg/mL	> 64 µg/mL	> 64 µg/mL	> 64 µg/mL
CCCCC[C@@H](O)CC(=O)N[C@@H](CN)C(=O)N[C@@H](Cc1ccccc1)C(=O)N[C@@H](CCN)C(=O)N[C@@H]1C(=O)N[C@H](Cc2ccccc2)C(=O)N[C@@H](CN)C(=O)N[C@H](CC(C)C)C(=O)N[C@@H](C(C)C)C(=O)N[C@@H](CC(=O)O)C(=O)O[C@@H]1C [synAQU3-C4] ({Octanoyl(3R-OH)}-[Dap]F[Dab]T[dF][Dap][dL]VD; ester 4-C (inferred))	–	–	–	–	–	–	–	–	–	–	–	–	–	–	> 64 µg/mL	> 64 µg/mL	> 64 µg/mL	> 64 µg/mL	> 64 µg/mL	> 64 µg/mL
CCCCC[C@@H](O)CC(=O)N[C@@H](CN)C(=O)N[C@@H](Cc1ccccc1)C(=O)N[C@@H](CCN)C(=O)N[C@H](C(=O)N[C@H](Cc1ccccc1)C(=O)N[C@@H](CN)C(=O)N[C@H](CC(C)C)C(=O)N[C@H](C(=O)N[C@@H](CC(=O)O)C(=O)O)C(C)C)[C@@H](C)O [synAQU3-L] ({Octanoyl(3R-OH)}-[Dap]F[Dab]T[dF][Dap][dL]VD-OH)	–	–	–	–	–	–	–	–	–	–	–	–	–	–	> 64 µg/mL	> 64 µg/mL	> 64 µg/mL	> 64 µg/mL	> 64 µg/mL	> 64 µg/mL
